Counter-ions that a name gives are not always drawn.
Assay: Chemical and physical stability studies under ICH storage conditions (extraction, HPLC, appearance)
Type: physicochemical
Settings: in Composition A; for calculated initial percentage of actives: before storage, HPLC; for calc. percentage of actives after storage for one month, 25° C. / calc. percentage of actives after storage for two months, 25° C.: 25° C./60% RH; for calc. percentage of actives after storage for one month, 30° C. / calc. percentage of actives after storage for two months, 30° C.: 30° C./60% RH; for calc. percentage of actives after storage for one month, 40° C. / calc. percentage of actives after storage for two months, 40° C.: 40° C./75% RH

With `CN(C)CCC=C1c2ccccc2CCc2ccccc21` [Amitriptyline Hydrochloride, Amitriptyline hydrochloride] the “calculated initial percentage of actives” value was 102.5%, the “calc. percentage of actives after storage for one month, 25° C.” value (“calc. percentage … for one month, 25° C.” for short) was 103% and the “calc. percentage of actives after storage for two months, 25° C.” value (shortened to “calc. percentage … for two months, 25° C.”) was 101%. For the same compound, the “calc. percentage of actives after storage for one month, 30° C.” value (“calc. percentage … for one month, 30° C.” for short) was 102%, the “calc. percentage of actives after storage for two months, 30° C.” value (shortened to “calc. percentage … for two months, 30° C.”) was 102% and the “calc. percentage of actives after storage for one month, 40° C.” value (“calc. percentage … for one month, 40° C.” for short) was 103%. For the same compound, the “calc. percentage of actives after storage for two months, 40° C.” value (shortened to “calc. percentage … for two months, 40° C.”) was 102%.

With `CNC1(c2ccccc2Cl)CCCCC1=O` (stereo not shown) [Ketamine Hydrochloride, Ketamine hydrochloride] the “calculated initial percentage of actives” value was 100.4%, the “calc. percentage … for one month, 25° C.” value was 103% and the “calc. percentage … for two months, 25° C.” value was 100%. The “calc. percentage … for one month, 30° C.” value was 102%, the “calc. percentage … for two months, 30° C.” value was 100% and the “calc. percentage … for one month, 40° C.” value was 103%. For the same compound, the “calc. percentage … for two months, 40° C.” value was 102%.

For `COC(=O)c1ccc(O)cc1` [Methylparaben], the “calculated initial percentage of actives” value was 104.4%, the “calc. percentage … for one month, 25° C.” value was 103% and the “calc. percentage … for two months, 25° C.” value was 101%. For the same compound, the “calc. percentage … for one month, 30° C.” value was 102%, the “calc. percentage … for two months, 30° C.” value was 102% and the “calc. percentage … for one month, 40° C.” value was 102%. For the same compound, the “calc. percentage … for two months, 40° C.” value was 102%.

For `CCCOC(=O)c1ccc(O)cc1` [Propylparaben], the “calculated initial percentage of actives” value was 101.8%, the “calc. percentage … for one month, 25° C.” value was 102% and the “calc. percentage … for two months, 25° C.” value was 102%. For the same compound, the “calc. percentage … for one month, 30° C.” value was 102%, the “calc. percentage … for two months, 30° C.” value was 103% and the “calc. percentage … for one month, 40° C.” value was 102%. For the same compound, the “calc. percentage … for two months, 40° C.” value was 103%.

Source: patent US6638981B2, “Topical compositions and methods for treating pain” (EpiCept Corporation, priority 2001, dated 2003)
